Drawing on PubChem BioAssay AID206 (DTP/NCI, 2004), this text covers T/C for 22 molecules.

Several values for one entry are separate records, joined by “and”; a condition that tells them apart may be missing. Equal entries are not always repeated. Results filed as inconclusive are left out.

This assay relates to nude mice, HT29 intrarenal xenograft, tumor weight T/C. Nature of the assay: NCI In Vivo Anticancer Drug Screen. Data for tumor model HT29;CX-1 Human Adenocarcinoma (MER+) (intrarenal inoculation) in NU/NU Swiss (nude) mice. The following applies: endpoint: mean tumor weight change, higher = larger tumour. The procedure, abridged: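 Readout: treated/vehicle-control ratio of the measured endpoint (tumor size or survival) in transplanted-tumor mice.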

Where [1] appears, read: dose: 100.0 mg/kg/injection, schedule: Q04DX004 (sc), vehicle: suspension in saline.
[2] abbreviates: dose: 200.0 mg/kg/injection, schedule: Q04DX004 (sc), vehicle: suspension in saline.
Where [3] appears, read: dose: 400.0 mg/kg/injection, schedule: Q04DX004 (sc), vehicle: suspension in saline.
Where [4] appears, read: dose: 150.0 mg/kg/injection, schedule: Q04DX004 (sc), vehicle: saline with Tween-80.
Where [5] appears, read: dose: 1200.0 mg/kg/injection, schedule: Q04DX004 (sc), vehicle: saline with Tween-80.
[6] abbreviates: dose: 300.0 mg/kg/injection, schedule: Q04DX004 (sc), vehicle: Klucel (hydroxypropylcellulose) (HPC).
Where [7] appears, read: dose: 600.0 mg/kg/injection, schedule: Q04DX004 (sc), vehicle: Klucel (hydroxypropylcellulose) (HPC).
The mark [8] stands for this setting: dose: 1200.0 mg/kg/injection, schedule: Q04DX004 (sc), vehicle: Klucel (hydroxypropylcellulose) (HPC).
Setting [9] is: dose: 400.0 mg/kg/injection, schedule: Q04DX004 (sc), vehicle: saline with Tween-80.

Take `C=C(OP(=O)(OC)OC)Sc1ccccc1C`: the T/C is, setting by setting: (dose: 100.0 micrograms/kg/injection, schedule: Q04DX004 (sc), vehicle: Klucel (hydroxypropylcellulose) (HPC)) 84 % of control; (dose: 400.0 micrograms/kg/injection, schedule: Q04DX004 (sc), vehicle: Klucel (hydroxypropylcellulose) (HPC)) 95 % of control; (dose: 800.0 micrograms/kg/injection, schedule: Q04DX004 (sc), vehicle: Klucel (hydroxypropylcellulose) (HPC)) 118 % of control.

As to `NC(=O)Oc1cccc(OC(N)=O)c1`, the T/C was 110 % of control (dose: 50.0 mg/kg/injection, schedule: Q04DX004 (sc), vehicle: suspension in saline); 102 % of control under setting [1]; 29 % of control under setting [2]; 62 % of control under setting [3].

Turning to `COc1cc(NCc2ccc3nc(N)nc(N)c3c2C)cc(OC)c1OC`, the T/C is, setting by setting: (dose: 9.35 mg/kg/injection, schedule: Q04DX004 (sc), vehicle: water) 88 % of control; (dose: 10.0 mg/kg/injection, schedule: Q01DX010 (sc), vehicle: sodium bicarbonate) 35 % of control; (dose: 18.7 mg/kg/injection, schedule: Q04DX004 (sc), vehicle: water) 117 % of control; (dose: 37.5 mg/kg/injection, schedule: Q04DX004 (sc), vehicle: water) 32 % of control.

On to `CCN(CC)CCCNc1nccc2c(C)c3[nH]c4ccncc4c3cc12`, for which the T/C runs as follows: (dose: 2.5 mg/kg/injection, schedule: Q01DX010 (sc), vehicle: other) 117 % of control; (dose: 5.0 mg/kg/injection, schedule: Q01DX010 (sc), vehicle: other) 108 % of control; (dose: 10.0 mg/kg/injection, schedule: Q01DX010 (sc), vehicle: other) 56 % of control.

Turning to `Cc1cn(C2CC(O)C(CO)O2)c(=O)[nH]c1=O` (configuration not stated), the T/C is 113 % of control (dose: 400.0 mg/kg/injection, schedule: Q04DX004 (sc), vehicle: saline); 94 % of control (dose: 800.0 mg/kg/injection, schedule: Q04DX004 (sc), vehicle: saline); 102 % of control (dose: 1600.0 mg/kg/injection, schedule: Q04DX004 (sc), vehicle: saline); 81 % of control (dose: 3200.0 mg/kg/injection, schedule: Q04DX004 (sc), vehicle: saline).

Take `CC1(C)CC(=O)C(CSC(=O)c2ccccc2)C(=O)C1`: the T/C runs as follows: (dose: 25.0 mg/kg/injection, schedule: Q01DX010 (sc), vehicle: Klucel (hydroxypropylcellulose) (HPC)) 79 % of control; (dose: 100.0 mg/kg/injection, schedule: Q01DX010 (sc), vehicle: Klucel (hydroxypropylcellulose) (HPC)) 120 % of control.

For `CCc1ccc(C2=C(O)C(=O)C(c3ccccc3)=C(O)C2=O)cc1`, the T/C (dose: 75.0 mg/kg/injection, schedule: Q04DX004 (sc), vehicle: Klucel (hydroxypropylcellulose) (HPC)) was 159 % of control.

Consider `BrC1c2cccc3cccc(c23)C1Br` (configuration not stated), for which the T/C was 186 % of control under setting [4]; 36 % of control and 39 % of control under setting [5].

`Cc1ccc(C(=O)[O][Hg][CH2]C2COC([CH2][Hg][O]C(=O)c3ccc(C)cc3)CO2)cc1` (configuration not stated): the T/C reads like this: (dose: 150.0 mg/kg/injection, schedule: Q04DX004 (sc), vehicle: Klucel (hydroxypropylcellulose) (HPC)) 87 % of control; under setting [6], 51 % of control; under setting [7], 47 % of control; under setting [8], 42 % of control.

Regarding `CCCCCC(=O)O[C@]1(C(C)=O)CC[C@H]2[C@@H]3CCC4=CC(=O)CC[C@]4(C)[C@H]3CC[C@@]21C`, the T/C reads like this: (dose: 225.0 mg/kg/injection, schedule: Q04DX004 (sc), vehicle: Klucel (hydroxypropylcellulose) (HPC)) 73 % of control; (dose: 450.0 mg/kg/injection, schedule: Q04DX004 (sc), vehicle: Klucel (hydroxypropylcellulose) (HPC)) 46 % of control; (dose: 900.0 mg/kg/injection, schedule: Q04DX004 (sc), vehicle: Klucel (hydroxypropylcellulose) (HPC)) 58 % of control; (dose: 1800.0 mg/kg/injection, schedule: Q04DX004 (sc), vehicle: Klucel (hydroxypropylcellulose) (HPC)) 36 % of control.

Consider `CCC1CN2C(=N1)c1ccccc1-c1cc(Cl)ccc12` (configuration not stated), for which the T/C (dose: 12.5 mg/kg/injection, schedule: Q01DX010 (sc), vehicle: saline with Tween-80) was 74 % of control; the T/C (dose: 25.0 mg/kg/injection, schedule: Q01DX010 (sc), vehicle: saline with Tween-80) is 37 % of control; the T/C (dose: 50.0 mg/kg/injection, schedule: Q01DX010 (sc), vehicle: saline with Tween-80) is 60 % of control; the T/C (dose: 100.0 mg/kg/injection, schedule: Q01DX010 (sc), vehicle: saline with Tween-80) was 89 % of control.

On to `O=c1ssc(=Nc2ccccc2)n1-c1ccccc1`, for which the T/C reads like this: under setting [6], 88 % of control; under setting [7], 75 % of control; under setting [8], 98 % of control; (dose: 2400.0 mg/kg/injection, schedule: Q04DX004 (sc), vehicle: Klucel (hydroxypropylcellulose) (HPC)) 189 % of control.

As for `O=CC(S)CO` (configuration not stated), the T/C runs as follows: under setting [1], 92 % of control; under setting [2], 69 % of control; under setting [3], 101 % of control; (dose: 800.0 mg/kg/injection, schedule: Q04DX004 (sc), vehicle: suspension in saline) 72 % of control.

With `CCOC1=Cc2c(oc3c(C(C)(C)C)cc(OCC)cc23)OC(C(C)(C)C)=C1`, the T/C is 79 % of control (dose: 37.5 mg/kg/injection, schedule: Q04DX004 (sc), vehicle: saline with Tween-80); 87 % of control (dose: 75.0 mg/kg/injection, schedule: Q04DX004 (sc), vehicle: saline with Tween-80); 256 % of control under setting [4].

Consider `CCOC(=O)[C@]1(Br)CC[C@@]1(Br)C(=O)OCC`, for which the T/C is, setting by setting: under setting [9], 105 % of control; (dose: 800.0 mg/kg/injection, schedule: Q04DX004 (sc), vehicle: saline with Tween-80) 93 % of control; (dose: 1600.0 mg/kg/injection, schedule: Q04DX004 (sc), vehicle: saline with Tween-80) 43 % of control.

Consider `CCCCCCCCCCCCCCCC(=O)Nc1ccn(C2OC(CO)C(O)C2O)c(=O)n1` (configuration not stated), for which the T/C (dose: 56.25 mg/kg/injection, schedule: Q04DX004 (sc), vehicle: water) is 114 % of control.

With `O=C(Nc1cccc(Cl)c1)ON1C(=O)C2C(C1=O)C1(Cl)C(Cl)C(Cl)C2(Cl)C1(Cl)Cl` (configuration not stated), the T/C was 90 % of control under setting [4]; 169 % of control (dose: 600.0 mg/kg/injection, schedule: Q04DX004 (sc), vehicle: saline with Tween-80); 89 % of control under setting [5].

Consider `C=CCNc1ccc(C)cc1`, for which the T/C was 105 % of control (dose: 50.0 mg/kg/injection, schedule: Q01DX010 (sc), vehicle: Klucel (hydroxypropylcellulose) (HPC)) and 86 % of control (dose: 200.0 mg/kg/injection, schedule: Q01DX010 (sc), vehicle: Klucel (hydroxypropylcellulose) (HPC)).

For the molecule `c1cc(OCC2CO2)ccc1OCC1CO1` (configuration not stated), the T/C runs as follows: (dose: 200.0 mg/kg/injection, schedule: Q04DX004 (sc), vehicle: saline with Tween-80) 79 % of control; under setting [9], 106 % of control.

Consider `CSc1ccc2c(c1)C(N1CCN(C)CC1)Cc1ccccc1S2` (configuration not stated), for which the T/C is 80 % of control (dose: 12.5 mg/kg/injection, schedule: Q04DX004 (sc), vehicle: saline with Tween-80); 98 % of control (dose: 25.0 mg/kg/injection, schedule: Q04DX004 (sc), vehicle: saline with Tween-80); 124 % of control (dose: 50.0 mg/kg/injection, schedule: Q04DX004 (sc), vehicle: saline with Tween-80).

Turning to `O=c1[nH]c(=O)c2nc(-c3cccnc3)cnc2[nH]1`, the T/C was 68 % of control (dose: 100.0 mg/kg/injection, schedule: Q04DX004 (sc), vehicle: Klucel (hydroxypropylcellulose) (HPC)); 85 % of control (dose: 200.0 mg/kg/injection, schedule: Q04DX004 (sc), vehicle: Klucel (hydroxypropylcellulose) (HPC)); 102 % of control (dose: 400.0 mg/kg/injection, schedule: Q04DX004 (sc), vehicle: Klucel (hydroxypropylcellulose) (HPC)); 77 % of control (dose: 800.0 mg/kg/injection, schedule: Q04DX004 (sc), vehicle: Klucel (hydroxypropylcellulose) (HPC)).

Regarding `COc1cc(Cc2nccc3cc(OC)c(OC)cc23)c(C(C)=O)c(OC)c1`, the T/C (dose: 40.0 mg/kg/injection, schedule: Q01DX010 (sc), vehicle: saline) was 35 % of control; the T/C (dose: 80.0 mg/kg/injection, schedule: Q01DX010 (sc), vehicle: saline) is 50 % of control; the T/C (dose: 160.0 mg/kg/injection, schedule: Q01DX010 (sc), vehicle: saline) was 19 % of control.
